Measured values reported in ChEMBL document CHEMBL4184125, “SIRT1 activator isolated from artificial gastric juice incubate of total saponins in stems and leaves of Panax ginseng” (Bioorg Med Chem Lett, 2018).
Active and inactive are the calls of the source. The rule behind the calls is not given here.

Assays:
[1] = target: T1, NAD-dependent protein deacetylase sirtuin-1 (Homo sapiens) (UniProt Q96EB6); experiment: Inhibition of SIRT1 (unknown origin) assessed as reduction in Fluor de Lys deacetylation at 10 to 20 uM incubated for 5 mins followed by substrate addition measured after 45 mins in presence of NAD/NADH by fluorescence assay
T1 sequence (whole entry): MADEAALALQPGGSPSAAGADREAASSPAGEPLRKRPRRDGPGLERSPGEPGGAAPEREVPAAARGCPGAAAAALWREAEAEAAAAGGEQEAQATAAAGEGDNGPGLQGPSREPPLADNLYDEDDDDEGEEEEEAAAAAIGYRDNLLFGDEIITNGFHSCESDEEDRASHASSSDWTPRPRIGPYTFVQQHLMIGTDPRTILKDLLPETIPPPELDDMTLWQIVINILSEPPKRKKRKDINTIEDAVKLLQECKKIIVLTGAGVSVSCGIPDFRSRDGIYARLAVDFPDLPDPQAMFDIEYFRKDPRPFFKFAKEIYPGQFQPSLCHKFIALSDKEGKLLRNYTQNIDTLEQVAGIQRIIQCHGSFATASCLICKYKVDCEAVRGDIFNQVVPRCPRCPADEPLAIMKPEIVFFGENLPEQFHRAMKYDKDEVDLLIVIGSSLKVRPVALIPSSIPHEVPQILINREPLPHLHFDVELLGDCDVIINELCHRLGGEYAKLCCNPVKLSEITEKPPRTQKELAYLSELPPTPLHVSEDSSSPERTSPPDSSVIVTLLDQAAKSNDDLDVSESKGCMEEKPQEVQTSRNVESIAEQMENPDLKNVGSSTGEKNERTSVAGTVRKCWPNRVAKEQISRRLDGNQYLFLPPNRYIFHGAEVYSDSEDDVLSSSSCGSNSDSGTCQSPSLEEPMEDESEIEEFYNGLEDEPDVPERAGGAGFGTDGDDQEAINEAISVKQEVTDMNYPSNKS

[2] = target: T1, NAD-dependent protein deacetylase sirtuin-1 (Homo sapiens); experiment: Activation of SIRT1 (unknown origin) assessed as Fluor de Lys deacetylation at 10 to 20 uM incubated for 5 mins followed by substrate addition measured after 45 mins in presence of NAD/NADH by fluorescence assay

SMILES | inhibition [1] | Activity [2]
C/C(=C\CCC(C)(C)O)[C@H]1CC[C@]2(C)[C@@H]1[C@H](O)C[C@@H]1[C@@]3(C)CC[C@H](O)C(C)(C)[C@@H]3[C@@H](O)C[C@]12C | inactive | –
CC(C)=CC/C=C(\C)[C@H]1CC[C@]2(C)[C@@H]1[C@H](O)C[C@@H]1[C@@]3(C)CC[C@H](O)C(C)(C)[C@@H]3[C@@H](O[C@@H]3O[C@H](CO)[C@@H](O)[C@H](O)[C@H]3O)C[C@]12C | inactive | Active
C=C(CCC=C(C)C)[C@H]1CC[C@]2(C)[C@@H]1[C@H](O)C[C@@H]1[C@@]3(C)CC[C@H](O)C(C)(C)[C@@H]3[C@@H](O[C@@H]3O[C@H](CO)[C@@H](O)[C@H](O)[C@H]3O)C[C@]12C | inactive | Active
NC(=O)c1cccnc1 | inactive | –
CC(C)=CCC[C@](C)(O)[C@H]1CC[C@]2(C)[C@@H]1[C@H](O)C[C@@H]1[C@@]3(C)CC[C@H](O[C@@H]4O[C@H](CO)[C@@H](O)[C@H](O)[C@H]4O)C(C)(C)[C@@H]3[C@@H](O)C[C@]12C | inactive | Active
CC(C)=CCC[C@](C)(O)[C@H]1CC[C@]2(C)[C@@H]1[C@H](O)C[C@@H]1[C@@]3(C)CC[C@H](O)C(C)(C)[C@@H]3CC[C@]12C | – | Active
C/C(=C\CCC(C)(C)O)[C@H]1CC[C@]2(C)[C@@H]1[C@H](O)C[C@@H]1[C@@]3(C)CC[C@H](O[C@@H]4O[C@H](CO)[C@@H](O)[C@H](O)[C@H]4O)C(C)(C)[C@@H]3[C@@H](O)C[C@]12C | inactive | –
CC(C)=CC/C=C(\C)[C@H]1CC[C@]2(C)[C@@H]1[C@H](O)C[C@@H]1[C@@]3(C)CC[C@H](O[C@@H]4O[C@H](CO)[C@@H](O)[C@H](O)[C@H]4O[C@@H]4O[C@H](CO)[C@@H](O)[C@H](O)[C@H]4O)C(C)(C)[C@@H]3CC[C@]12C | inactive | Active
CC(C)=CCC[C@](C)(O)[C@H]1CC[C@]2(C)[C@@H]1[C@H](O)C[C@@H]1[C@@]3(C)CC[C@H](O)C(C)(C)[C@@H]3[C@@H](O[C@@H]3O[C@H](CO)[C@@H](O)[C@H](O)[C@H]3O[C@@H]3O[C@@H](C)[C@H](O)[C@@H](O)[C@H]3O)C[C@]12C | inactive | –
CC(C)=CCC[C@@](C)(O)[C@H]1CC[C@]2(C)[C@@H]1[C@H](O)C[C@@H]1[C@@]3(C)CC[C@H](O[C@@H]4O[C@H](CO)[C@@H](O)[C@H](O)[C@H]4O[C@@H]4O[C@H](CO)[C@@H](O)[C@H](O)[C@H]4O)C(C)(C)[C@@H]3CC[C@]12C | inactive | Active
C/C(=C/CCC(C)(C)O)[C@H]1CC[C@]2(C)[C@@H]1[C@H](O)C[C@@H]1[C@@]3(C)CC[C@H](O)C(C)(C)[C@@H]3[C@@H](O)C[C@]12C | inactive | –
Oc1ccc(/C=C/c2cc(O)cc(O)c2)cc1 | inactive | –
CC(C)=CCC[C@@](C)(O)[C@H]1CC[C@]2(C)[C@@H]1[C@H](O)C[C@@H]1[C@@]3(C)CC[C@H](O[C@@H]4O[C@H](CO)[C@@H](O)[C@H](O)[C@H]4O)C(C)(C)[C@@H]3[C@@H](O)C[C@]12C | inactive | –
CCOC(C)(C)CC/C=C(\C)[C@H]1CC[C@]2(C)[C@@H]1[C@H](O)C[C@@H]1[C@@]3(C)CC[C@H](O)C(C)(C)[C@@H]3[C@@H](O)C[C@]12C | inactive | –
CC(C)=CCC[C@@](C)(O)[C@H]1CC[C@]2(C)[C@@H]1[C@H](O)C[C@@H]1[C@@]3(C)CC[C@H](O[C@@H]4O[C@H](CO)[C@@H](O)[C@H](O)[C@H]4O)C(C)(C)[C@@H]3CC[C@]12C | inactive | –
CC(C)=CCC[C@@](C)(O)[C@H]1CC[C@]2(C)[C@@H]1[C@H](O)C[C@@H]1[C@@]3(C)CC[C@H](O)C(C)(C)[C@@H]3[C@@H](O[C@@H]3O[C@H](CO)[C@@H](O)[C@H](O)[C@H]3O[C@@H]3O[C@@H](C)[C@H](O)[C@@H](O)[C@H]3O)C[C@]12C | inactive | –
CC(C)=CCC[C@](C)(O)[C@H]1CC[C@]2(C)[C@@H]1[C@H](O)C[C@@H]1[C@@]3(C)CC[C@H](O[C@@H]4O[C@H](CO)[C@@H](O)[C@H](O)[C@H]4O)C(C)(C)[C@@H]3CC[C@]12C | inactive | Active
CC(C)(O)CCC[C@](C)(O)[C@H]1CC[C@]2(C)[C@@H]1[C@H](O)C[C@@H]1[C@@]3(C)CC[C@H](O)C(C)(C)[C@@H]3[C@@H](O)C[C@]12C | inactive | inactive
CC(C)(O)CCC[C@@](C)(O)[C@H]1CC[C@]2(C)[C@@H]1[C@H](O)C[C@@H]1[C@@]3(C)CC[C@H](O)C(C)(C)[C@@H]3[C@@H](O)C[C@]12C | inactive | inactive
C=C(CCC=C(C)C)[C@H]1CC[C@]2(C)[C@@H]1[C@H](O)C[C@@H]1[C@@]3(C)CC[C@H](O)C(C)(C)[C@@H]3[C@@H](O[C@@H]3O[C@H](CO)[C@@H](O)[C@H](O)[C@H]3O[C@@H]3O[C@@H](C)[C@H](O)[C@@H](O)[C@H]3O)C[C@]12C | inactive | –
C/C(=C/CC[C@@](C)(O)[C@H]1CC[C@]2(C)[C@@H]1[C@H](O)C[C@@H]1[C@@]3(C)CC[C@H](O)C(C)(C)[C@@H]3[C@@H](O)C[C@]12C)CO | inactive | –
CC(C)=CCC[C@](C)(O[C@@H]1O[C@H](CO)[C@@H](O)[C@H](O)[C@H]1O)[C@H]1CC[C@]2(C)[C@@H]1[C@H](O)C[C@@H]1[C@@]3(C)CC[C@H](O)C(C)(C)[C@@H]3[C@@H](O)C[C@]12C | inactive | Active
CC(C)=CCC[C@](C)(O)[C@H]1CC[C@]2(C)[C@@H]1[C@H](O)C[C@@H]1[C@@]3(C)CC[C@H](O[C@@H]4O[C@H](CO)[C@@H](O)[C@H](O)[C@H]4O[C@@H]4O[C@H](CO)[C@@H](O)[C@H](O)[C@H]4O)C(C)(C)[C@@H]3CC[C@]12C | inactive | Active
